Assay results from ChEMBL document CHEMBL5120855, “Potent 2,3-dihydrophthalazine-1,4-dione derivatives as dual inhibitors for mono-ADP-ribosyltransferases PARP10 and PARP15” (Eur J Med Chem, 2022).
pEC50, pIC50: −log10 of the molar value.

What was measured:
[1] = target: Poly [ADP-ribose] polymerase 2 (Homo sapiens, UniProt Q9UGN5); test: Inhibition of human PARP2 using NAD+ as substrate incubated for 10 mins by fluorescence based analysis
[2] = system: HEK-293T; test: Cytotoxicity against HEK293T cells assessed as reduction in cell viability at 10 uM measured after 24 hrs by WST-1 assay; assay type: toxicity, cell-based; conditions: human
[3] = target: T1, Protein mono-ADP-ribosyltransferase PARP15 (Homo sapiens, UniProt Q460N3); test: Inhibition of human N-terminal 6His-tagged PARP15 (460 to 656 residues) expressed in Escherichia coli Rosetta2 (DE3) cells using NAD+ as substrate incubated for 10 mins by fluorescence based analysis
T1 sequence (Q460N3 whole entry): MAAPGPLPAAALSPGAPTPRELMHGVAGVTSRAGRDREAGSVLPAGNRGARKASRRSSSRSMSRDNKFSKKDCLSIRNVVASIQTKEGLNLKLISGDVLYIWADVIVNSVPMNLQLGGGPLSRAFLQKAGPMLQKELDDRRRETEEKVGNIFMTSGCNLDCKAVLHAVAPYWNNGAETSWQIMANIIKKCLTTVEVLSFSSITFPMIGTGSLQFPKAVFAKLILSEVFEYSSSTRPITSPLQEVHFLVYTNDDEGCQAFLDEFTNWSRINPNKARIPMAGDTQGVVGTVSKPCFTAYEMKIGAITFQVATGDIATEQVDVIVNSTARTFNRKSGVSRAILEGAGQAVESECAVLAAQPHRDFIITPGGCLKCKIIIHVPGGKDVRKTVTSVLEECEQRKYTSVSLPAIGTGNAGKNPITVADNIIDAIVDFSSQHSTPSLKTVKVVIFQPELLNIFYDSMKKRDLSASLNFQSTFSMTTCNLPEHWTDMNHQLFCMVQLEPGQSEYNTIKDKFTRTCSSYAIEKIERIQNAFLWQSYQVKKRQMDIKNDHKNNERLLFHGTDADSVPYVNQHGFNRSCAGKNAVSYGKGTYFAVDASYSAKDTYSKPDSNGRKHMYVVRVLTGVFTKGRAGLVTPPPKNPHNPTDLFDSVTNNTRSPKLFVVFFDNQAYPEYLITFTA

[4] = target: Protein mono-ADP-ribosyltransferase PARP14 (Homo sapiens, UniProt Q460N5); test: Inhibition of human PARP14 using NAD+ as substrate incubated for 10 mins by fluorescence based analysis
Sequence of Protein mono-ADP-ribosyltransferase PARP14 (Q460N5 whole entry): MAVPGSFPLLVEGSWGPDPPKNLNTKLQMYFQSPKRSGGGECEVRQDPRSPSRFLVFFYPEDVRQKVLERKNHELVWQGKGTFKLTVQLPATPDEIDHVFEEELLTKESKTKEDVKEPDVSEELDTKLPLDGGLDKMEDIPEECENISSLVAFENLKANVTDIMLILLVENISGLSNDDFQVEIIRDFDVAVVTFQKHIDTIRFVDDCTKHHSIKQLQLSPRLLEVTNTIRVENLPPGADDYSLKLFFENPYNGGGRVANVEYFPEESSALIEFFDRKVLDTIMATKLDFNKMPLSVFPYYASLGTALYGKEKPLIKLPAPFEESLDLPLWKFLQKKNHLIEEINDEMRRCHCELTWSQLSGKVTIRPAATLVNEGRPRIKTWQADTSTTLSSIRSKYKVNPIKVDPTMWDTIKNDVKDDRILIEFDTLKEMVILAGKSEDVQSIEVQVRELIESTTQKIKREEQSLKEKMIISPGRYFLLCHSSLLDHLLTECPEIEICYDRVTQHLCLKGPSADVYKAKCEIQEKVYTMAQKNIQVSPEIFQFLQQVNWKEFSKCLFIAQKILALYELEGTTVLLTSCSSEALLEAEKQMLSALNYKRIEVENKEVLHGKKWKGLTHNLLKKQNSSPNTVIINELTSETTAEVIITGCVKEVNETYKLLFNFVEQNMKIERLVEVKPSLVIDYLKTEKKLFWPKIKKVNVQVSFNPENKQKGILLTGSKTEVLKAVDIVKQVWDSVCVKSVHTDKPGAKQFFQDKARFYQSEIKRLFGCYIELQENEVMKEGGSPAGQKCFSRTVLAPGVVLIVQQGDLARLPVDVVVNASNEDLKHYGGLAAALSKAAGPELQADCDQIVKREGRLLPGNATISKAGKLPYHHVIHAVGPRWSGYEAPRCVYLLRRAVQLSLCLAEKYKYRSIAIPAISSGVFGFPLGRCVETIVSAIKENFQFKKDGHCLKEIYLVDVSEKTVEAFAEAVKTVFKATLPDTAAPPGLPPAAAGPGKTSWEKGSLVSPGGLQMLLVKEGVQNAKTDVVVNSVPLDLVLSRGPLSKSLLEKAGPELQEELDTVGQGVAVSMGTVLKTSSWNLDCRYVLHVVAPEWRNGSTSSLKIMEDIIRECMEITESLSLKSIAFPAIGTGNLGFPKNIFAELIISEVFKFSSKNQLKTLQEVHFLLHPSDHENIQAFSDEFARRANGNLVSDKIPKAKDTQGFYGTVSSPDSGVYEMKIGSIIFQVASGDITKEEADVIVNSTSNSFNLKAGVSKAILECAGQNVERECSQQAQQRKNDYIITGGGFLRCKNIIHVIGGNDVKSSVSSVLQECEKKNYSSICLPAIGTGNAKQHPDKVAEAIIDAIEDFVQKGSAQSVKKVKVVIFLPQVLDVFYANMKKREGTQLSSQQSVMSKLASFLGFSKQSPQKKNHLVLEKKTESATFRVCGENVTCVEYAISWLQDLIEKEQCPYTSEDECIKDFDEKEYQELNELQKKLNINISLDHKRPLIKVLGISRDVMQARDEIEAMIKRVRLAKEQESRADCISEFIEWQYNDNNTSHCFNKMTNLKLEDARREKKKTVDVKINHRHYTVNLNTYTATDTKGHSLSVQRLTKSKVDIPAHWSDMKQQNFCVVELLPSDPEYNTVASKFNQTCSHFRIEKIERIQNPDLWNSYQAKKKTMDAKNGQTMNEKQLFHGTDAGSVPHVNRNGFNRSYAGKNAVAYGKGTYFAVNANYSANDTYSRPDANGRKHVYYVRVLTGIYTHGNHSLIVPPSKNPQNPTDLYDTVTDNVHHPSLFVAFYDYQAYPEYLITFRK

[5] = target: T2, Protein mono-ADP-ribosyltransferase PARP10 (Homo sapiens, UniProt Q53GL7); test: Inhibition of human PARP-10 using NAD+ as substrate incubated for 10 mins by fluorescence based analysis
T2 sequence (Q53GL7 whole entry): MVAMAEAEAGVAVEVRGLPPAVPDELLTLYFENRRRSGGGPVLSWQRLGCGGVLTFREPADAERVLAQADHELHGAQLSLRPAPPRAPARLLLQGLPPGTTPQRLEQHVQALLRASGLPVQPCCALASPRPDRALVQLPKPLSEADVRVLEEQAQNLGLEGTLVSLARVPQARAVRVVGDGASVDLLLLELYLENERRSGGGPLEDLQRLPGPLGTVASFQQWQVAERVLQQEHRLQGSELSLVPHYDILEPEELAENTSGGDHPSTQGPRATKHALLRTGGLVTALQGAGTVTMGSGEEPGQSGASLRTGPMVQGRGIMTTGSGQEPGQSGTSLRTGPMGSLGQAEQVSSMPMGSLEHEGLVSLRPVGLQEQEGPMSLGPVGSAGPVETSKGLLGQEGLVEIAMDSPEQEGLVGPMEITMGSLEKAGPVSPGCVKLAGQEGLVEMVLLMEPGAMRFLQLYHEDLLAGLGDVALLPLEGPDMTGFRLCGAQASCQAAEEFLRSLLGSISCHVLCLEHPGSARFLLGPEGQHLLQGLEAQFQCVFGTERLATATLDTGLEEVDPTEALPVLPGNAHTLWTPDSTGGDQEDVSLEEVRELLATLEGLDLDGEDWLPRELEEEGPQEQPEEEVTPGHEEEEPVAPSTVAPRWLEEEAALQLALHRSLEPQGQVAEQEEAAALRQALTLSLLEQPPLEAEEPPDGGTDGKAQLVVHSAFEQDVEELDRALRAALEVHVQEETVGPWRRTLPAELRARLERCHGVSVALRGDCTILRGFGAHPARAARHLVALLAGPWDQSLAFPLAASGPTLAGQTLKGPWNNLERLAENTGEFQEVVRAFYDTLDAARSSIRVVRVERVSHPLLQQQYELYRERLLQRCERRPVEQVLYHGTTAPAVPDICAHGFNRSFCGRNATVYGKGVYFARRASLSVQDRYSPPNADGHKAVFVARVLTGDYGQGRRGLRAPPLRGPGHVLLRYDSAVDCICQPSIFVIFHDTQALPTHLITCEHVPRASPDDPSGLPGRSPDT

[6] = target: T3, Poly [ADP-ribose] polymerase tankyrase-2 (Homo sapiens, UniProt Q9H2K2); test: Inhibition of human N-terminal 6His-tagged TNKS2 (1030 to 1317 residues) expressed in Escherichia coli Rosetta2 (DE3) cells using NAD+ as substrate incubated for 10 mins by fluorescence based analysis
T3 sequence (Q9H2K2 whole entry): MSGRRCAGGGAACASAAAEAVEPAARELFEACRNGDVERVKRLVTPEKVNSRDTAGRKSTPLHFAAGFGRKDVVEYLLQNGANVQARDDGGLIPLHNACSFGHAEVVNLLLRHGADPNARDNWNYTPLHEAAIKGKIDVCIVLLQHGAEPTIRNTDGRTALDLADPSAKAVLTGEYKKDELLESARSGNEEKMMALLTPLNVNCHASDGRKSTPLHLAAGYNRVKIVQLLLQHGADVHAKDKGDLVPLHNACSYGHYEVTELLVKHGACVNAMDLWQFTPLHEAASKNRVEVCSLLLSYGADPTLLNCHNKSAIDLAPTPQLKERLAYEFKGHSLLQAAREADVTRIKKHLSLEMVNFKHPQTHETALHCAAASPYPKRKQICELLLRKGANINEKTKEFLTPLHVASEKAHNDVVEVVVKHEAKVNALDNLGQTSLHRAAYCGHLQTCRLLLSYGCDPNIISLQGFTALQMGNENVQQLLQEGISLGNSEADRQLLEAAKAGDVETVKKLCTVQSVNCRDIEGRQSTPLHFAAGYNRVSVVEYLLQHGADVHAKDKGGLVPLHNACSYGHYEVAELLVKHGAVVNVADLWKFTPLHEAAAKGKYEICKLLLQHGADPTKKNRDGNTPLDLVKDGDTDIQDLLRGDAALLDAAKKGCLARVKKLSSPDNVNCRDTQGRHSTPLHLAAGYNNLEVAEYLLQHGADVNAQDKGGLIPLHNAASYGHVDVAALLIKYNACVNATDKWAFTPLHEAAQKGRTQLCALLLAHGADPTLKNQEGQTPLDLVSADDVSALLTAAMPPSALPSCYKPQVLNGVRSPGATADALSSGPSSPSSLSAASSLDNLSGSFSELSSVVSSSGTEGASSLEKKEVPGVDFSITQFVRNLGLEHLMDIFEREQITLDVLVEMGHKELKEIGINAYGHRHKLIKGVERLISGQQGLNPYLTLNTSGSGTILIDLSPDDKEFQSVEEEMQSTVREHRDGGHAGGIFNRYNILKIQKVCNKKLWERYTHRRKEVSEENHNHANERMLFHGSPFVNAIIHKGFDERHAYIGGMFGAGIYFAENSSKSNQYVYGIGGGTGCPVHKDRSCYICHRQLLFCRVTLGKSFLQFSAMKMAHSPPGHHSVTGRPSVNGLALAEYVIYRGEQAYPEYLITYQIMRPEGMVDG

[7] = system: HeLa; test: Rescue of cell viability in human HeLa cells expressing wild type PARP10 at upto 10 uM incubated for 10 to 12 days by methylene blue dye based colony formation assay; assay type: functional
[8] = system: HEK-293T; test: Cytotoxicity against HEK293T cells assessed as reduction in cell viability at 100 uM measured after 24 hrs by WST-1 assay; assay type: toxicity, cell-based; conditions: human
[9] = target: T1, Protein mono-ADP-ribosyltransferase PARP15; test: Inhibition of PARP15 (unknown origin)

Sequence of Poly [ADP-ribose] polymerase 2 (Q9UGN5 whole entry): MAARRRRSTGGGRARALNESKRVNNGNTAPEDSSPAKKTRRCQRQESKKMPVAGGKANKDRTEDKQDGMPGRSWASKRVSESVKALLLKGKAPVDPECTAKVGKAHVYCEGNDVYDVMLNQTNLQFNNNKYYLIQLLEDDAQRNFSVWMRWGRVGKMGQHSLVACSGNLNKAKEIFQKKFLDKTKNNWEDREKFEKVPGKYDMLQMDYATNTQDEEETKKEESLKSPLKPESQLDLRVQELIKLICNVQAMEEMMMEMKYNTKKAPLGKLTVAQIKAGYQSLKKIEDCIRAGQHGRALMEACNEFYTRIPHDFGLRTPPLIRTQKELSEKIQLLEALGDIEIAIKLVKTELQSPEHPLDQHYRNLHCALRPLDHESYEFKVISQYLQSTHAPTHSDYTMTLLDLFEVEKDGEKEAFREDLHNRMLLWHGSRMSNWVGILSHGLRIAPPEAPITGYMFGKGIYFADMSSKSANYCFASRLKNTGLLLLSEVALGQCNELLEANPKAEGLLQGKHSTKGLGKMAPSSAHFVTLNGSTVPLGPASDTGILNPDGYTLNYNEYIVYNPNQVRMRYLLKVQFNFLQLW

| Compound | pIC50 [1] | pIC50 [3] | pIC50 [4] | pIC50 [5] | pIC50 [6] | pEC50 [7] | pIC50 [9] | Activity [2] | Activity [8] |
| --- | --- | --- | --- | --- | --- | --- | --- | --- | --- |
| NC(=O)c1ccc(OCC2CCCCC2)cc1 | < 4.00 | 5.44 | < 4.00 | 5.77 | < 4.00 | – | – | Non-Toxic | – |
| NC(=O)c1ccc(OCC2CCC2)cc1OCCN1CCNCC1 | < 4.00 | < 5.00 | < 5.00 | < 5.00 | < 4.00 | – | – | Non-Toxic | – |
| O=c1[nH][nH]c(=O)c2cc(OCC3CC3)ccc12 | < 4.00 | 5.92 | < 5.00 | 6.51 | < 4.00 | – | – | Non-Toxic | – |
| O=c1[nH][nH]c(=O)c2cc(OCC3CCCCC3)ccc12 | – | 6.40 | – | 6.85 | – | 5.82 | – | Non-Toxic | – |
| O=c1[nH][nH]c(=O)c2cc(OCC3CCC3)ccc12 | < 4.00 | 6.43 | < 5.00 | 6.80 | < 4.00 | – | – | Non-Toxic | – |
| O=c1[nH][nH]c(=O)c2cc(OCC3CCCC3)ccc12 | < 4.00 | 6.49 | < 5.00 | 6.89 | < 4.00 | – | – | Non-Toxic | – |
| Cc1cccc(C(=O)N[C@H](C(N)=O)C(=O)c2ccc3c(=O)[nH][nH]c(=O)c3c2)c1 | – | – | – | – | – | – | 6.70 | – | – |
| NC(=O)c1ccc(OCC2CC2)cc1 | 4.28 | 5.32 | < 5.00 | 6.22 | < 4.00 | – | – | Non-Toxic | – |
| O=c1[nH][nH]c(=O)c2cc(OCc3ccsc3)ccc12 | – | 6.40 | – | 6.80 | – | 6.02 | – | Non-Toxic | – |
| NC(=O)c1ccc(OCC2CCCC2)cc1 | < 4.00 | 5.42 | < 5.00 | 6.23 | < 4.00 | – | – | Non-Toxic | – |

The next lines start with results.

| pIC50 [1] | pIC50 [3] | pIC50 [4] | pIC50 [5] | pIC50 [6] | pEC50 [7] | pIC50 [9] | Compound | Activity [2] | Activity [8] |
| --- | --- | --- | --- | --- | --- | --- | --- | --- | --- |
| < 4.00 | 5.89 | < 4.00 | 5.92 | < 4.00 | – | – | O=c1[nH][nH]c(=O)c2cc(OCc3cccc(Br)c3)ccc12 | Non-Toxic | – |
| < 4.00 | < 5.00 | < 5.00 | < 5.00 | < 4.00 | – | – | NC(=O)c1ccc(OCC2CCCCC2)cc1OCc1ccccn1 | Non-Toxic | – |
| < 4.00 | < 5.00 | 5.17 | 5.09 | < 4.00 | – | – | COc1ccccc1COc1ccc(C(N)=O)c(F)c1 | Non-Toxic | – |
| < 4.00 | 5.66 | < 4.00 | 5.30 | < 4.00 | – | – | COc1cc(OCc2cccc3ccccc23)ccc1C(N)=O | Non-Toxic | – |
| < 4.00 | 5.22 | < 5.00 | 6.21 | < 4.00 | – | – | NC(=O)c1ccc(OCC2CCC2)cc1F | Non-Toxic | – |
| < 4.00 | 5.62 | < 5.00 | 5.80 | < 4.00 | – | – | NC(=O)c1ccc(OCc2cncs2)cc1 | Non-Toxic | – |
| < 4.00 | 5.30 | < 4.00 | 5.36 | < 4.00 | – | – | COc1cc(OCC2CCCCC2)ccc1C(N)=O | Non-Toxic | – |
| < 4.00 | 6.22 | < 5.00 | 5.82 | < 4.00 | – | – | NC(=O)c1ccc(OCc2cccc(Br)c2)cc1F | Non-Toxic | – |
| < 4.00 | 5.59 | < 5.00 | 5.72 | < 4.00 | – | – | COc1cc(OCc2ccccc2F)ccc1C(N)=O | Non-Toxic | Toxic |
| < 4.00 | 5.60 | < 4.00 | < 5.00 | < 4.00 | – | – | COc1cc(OCc2cccc(Br)c2)ccc1C(N)=O | Non-Toxic | – |
| < 4.00 | < 5.00 | < 5.00 | 6.02 | < 4.00 | – | – | NC(=O)c1ccc(OCC2CCCCC2)cc1F | Non-Toxic | – |
| – | 6.43 | – | 6.82 | – | 5.80 | – | O=c1[nH][nH]c(=O)c2cc(OCc3ccccc3F)ccc12 | Non-Toxic | – |
